Assays:
Type in all cases: in vivo
[1] = system: Boophilus microplus; experiment: Boophilus microplus test (BOOPMI injection); details: for activity (100% = none of the ticks has laid any fertile eggs): 20 μg/animal, injection into the abdomen, after 7 days
Method in brief: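 Ticks injected in the abdomen with compound in DMSO, then held in a climatized room. Effect scored after 7 days as % reduction in fertile egg laying, 100% meaning no fertile eggs.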

[2] = system: larvae of the mustard beetle (Phaedon cochleariae); experiment: Phaedon test (PHAECO spray treatment); details: 500 g/ha, spray, after 7 days; for pest or weed control at 500 g/ha: Phaedon cochleariae, 168 h, read-out: activity (beetle larvae killed)
Method in brief: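 Chinese cabbage leaf discs sprayed with compound formulated in acetone/dimethylformamide with alkylaryl polyglycol ether emulsifier, diluted in emulsifier-containing water to the desired concentration. After drying, discs were populated with mustard beetle larvae.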

[3] = system: Culex quinquefasciatus; experiment: whole plant or invertebrate; details: for knock-down activity: 100 mg/m^2, two hours after contact, exposition 30 minutes; for mortality at 100 mg/m2: Culex quinquefasciatus, read-out: activity (mortality in %)
Procedure: Culex Test (CULXFA Surface Treatment) Solvent: Acetone
To produce a suitable preparation of active compound, the active compound is dissolved in acetone (2 mg/ml). The active compound preparation is pipetted onto a glazed tile and, after drying, adult mosquitoes of the species Culex quinquefasciatus are placed onto the treated tile. The exposition time is 30 minutes.
Two hours after contact to the treated surface, the knock-down proportion of the test animals in % is determined.
24 hours after contact to the treated surface, the mortality in % is determined. Here, 100% means that all mosquitoes have been killed; 0% means that none of the mosquitoes has been killed.

[4] = system: bed bugs of the species Cimex lectularius; experiment: whole plant or invertebrate; details: for mortality at 100 mg/m2: Cimex lectularius, read-out: activity (mortality in %)
Procedure: Cimex Test (CIMXLE Surface Treatment)
To produce a suitable preparation of the active compound, the active compound is dissolved in acetone (2 mg/ml). The active compound preparation is pipetted onto a glazed tile and, after drying, adult bed bugs of the species Cimex lectularius are placed onto the treated tile. The exposition time is 30 minutes.
Two hours after contact to the treated surface, the knock-down proportion of the test animals in % is determined
24 hours after contact to the treated surface, the mortality in % is determined. Here, 100% means that all bed bugs have been killed; 0% means that none of the bed bugs have been killed.

[5] = system: Boophilus microplus strain Parkhurst, SP-resistant; experiment: Boophilus microplus test (DIP); details: 100 ppm, after 7 days
Procedure: Boophilus microplus Test (DIP) Test Animals: Adult Fat Females of the Boophilus microplus Strain Parkhurst—SP-Resistant) Solvent: Dimethyl Sulphoxide
10 mg of active compound are dissolved in 0.5 ml of dimethyl sulphoxide. To produce a suitable formulation, the active compound solution is diluted with water to the particular desired concentration.
This active compound preparation is pipetted into tubes. 8-10 ticks are transferred into a further tube provided with holes. The tube is dipped into the active compound preparation, with all the ticks being wetted completely. After the liquid has run off, the ticks are transferred to filter discs in plastic dishes and kept in a climatized room. After 7 days, the activity is checked for deposition of fertile eggs. Eggs whose fertility is not visible from the outside are kept in glass tubes in a climatized cupboard until the larvae have hatched. An activity of 100% means that no tick has laid fertile eggs.

[6] = system: brown dog ticks (Rhipicephalus sanguineus, fully sensitive laboratory strain); experiment: Contact test against ticks in vitro (RHIPSA contact); details: active compound concentration 4 g/ha
Procedure: Contact Test Against Ticks In Vitro (RHIPSA Contact)
An amount of 0.9 mg of active compound is weighed out, and 1 ml of acetone is added.
Of this acetone solution, either 250 μl are transferred directly into roll-necked test tubes or an aliquot is diluted with 4 parts of acetone 1:5. For its part, 250 μl of this dilution are pipetted into roll-necked test tubes, or the dilution is diluted further, etc., until the desired number of dilution steps is reached.
The roll-necked test tubes containing the solution of the active compound in acetone are immediately coated in a fume cupboard by 2 h of swing rotation at 30 rpm. After evaporation of the solvent, the active compound contained in the acetone gives, at the highest concentration tested, an active compound content of 500 g/ha (or […]) on the surface of the test tube.
5-10 Adult brown dog ticks (Rhipicephalus sanguineus, fully sensitive laboratory strain) are transferred into the test tubes prepared in this manner, and the test tubes are closed with a plastic roll-necked lid provided with fine holes.
The test tubes are stored vertically at room temperature and humidity for 24 or 48 h in the dark. After 24 and 48 h, the activity of the active compound applied is determined by comparison with an acetone-treated control. […]

| SMILES | activity (100% = none of the ticks has laid any fertile eggs) [1] | pest or weed control at 500 g/ha [2] | knock-down activity [3] | mortality at 100 mg/m2 [3] | knock-down activity ([4]; 100 mg/m^2, two hours after contact, exposition 30 minutes) | mortality at 100 mg/m2 [4] | Kill rate in % after 7 days ([1]; active compound concentration 0.16 μg/animal) | activity (100% = no tick has laid fertile eggs) [5] | activity (beetle larvae killed) [2] | Kill rate in % after 2 days [6] |
| --- | --- | --- | --- | --- | --- | --- | --- | --- | --- | --- |
| Cc1ccc(N=C2C(=CSc3ccc(F)cc3)CCc3ccccc32)cc1 [Example 1-9] | 100% | 100% | 100% | 100% | 80% | 100% | – | – | – | – |
| Cc1ccc(N=C2C(=CSc3ccc(F)cc3)CCc3cc(F)ccc32)cc1 [Example 1-16] | 100% | 100% | 95% | 100% | – | 90% | 90% | 100% | – | – |
| Cc1ccc(N=C2C(=CSc3ccc(C)cc3)CCc3ccccc32)cc1 [Example 1-28] | 100% | – | 95% | – | – | – | – | 100% | 100% | – |
| Cc1ccc(N=C2C(=CSc3ccc(F)cc3)CSc3ccccc32)cc1 [Example 1-35] | 100% | 100% | – | 100% | – | – | – | – | – | 100% |
| Cc1ccc(N=C2C(=CSc3ccc(F)cc3)C(C)c3ccccc32)cc1 (stereo not drawn) [Example 1-57] | 100% | 100% | – | 100% | – | – | – | – | – | – |
